target: T1, mGluR2 receptor (metabotropic glutamate receptor 2) (Homo sapiens, UniProt Q14416); test: mGluR2 Potentiator Screen, FLIPR, EC10-EC20 glutamate challenge; type: cell-based; conditions: not given
T1 construct: expressed in transfected cells
Summary of the method: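 Potentiator assay in HEK cells stably expressing mGluR2 with Gα15, glutamine-depleted overnight, loaded with Fluo-4 plus probenecid and GPT/pyruvate to remove glutamate. Peak fluorescence ratio curve-fitted, with maximum set by on-plate standards.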

T1 sequence (Q14416 19-872, species assumed): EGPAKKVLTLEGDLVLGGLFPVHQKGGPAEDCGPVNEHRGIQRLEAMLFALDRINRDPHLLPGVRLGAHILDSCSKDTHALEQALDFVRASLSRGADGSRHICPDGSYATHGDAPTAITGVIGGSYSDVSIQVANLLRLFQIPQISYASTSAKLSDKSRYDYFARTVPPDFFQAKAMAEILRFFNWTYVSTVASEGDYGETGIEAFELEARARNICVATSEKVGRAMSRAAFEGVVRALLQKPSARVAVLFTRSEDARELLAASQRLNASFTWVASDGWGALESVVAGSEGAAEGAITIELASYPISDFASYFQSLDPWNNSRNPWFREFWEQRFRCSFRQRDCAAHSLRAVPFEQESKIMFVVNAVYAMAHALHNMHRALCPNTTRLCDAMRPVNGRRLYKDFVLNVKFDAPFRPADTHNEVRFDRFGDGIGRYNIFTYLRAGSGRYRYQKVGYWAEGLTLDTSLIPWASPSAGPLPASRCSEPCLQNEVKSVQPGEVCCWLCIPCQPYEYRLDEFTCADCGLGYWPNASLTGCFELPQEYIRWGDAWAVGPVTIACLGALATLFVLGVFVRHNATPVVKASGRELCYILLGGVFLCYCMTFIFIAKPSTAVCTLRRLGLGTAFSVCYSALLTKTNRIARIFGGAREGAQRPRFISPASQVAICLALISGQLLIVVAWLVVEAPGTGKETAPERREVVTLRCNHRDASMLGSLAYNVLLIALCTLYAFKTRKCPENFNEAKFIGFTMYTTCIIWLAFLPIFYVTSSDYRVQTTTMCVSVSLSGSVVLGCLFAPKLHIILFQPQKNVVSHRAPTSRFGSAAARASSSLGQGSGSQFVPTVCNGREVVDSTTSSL

Structure (SMILES)	EC50 [nM]
C[C@@H]1CN(Cc2nc3cnccc3n2C)CC[C@@H]1c1ccccc1F (single isomer, unassigned) [compound 117]	> 359
CCCOc1ccc(Cl)cc1C1CCN(Cc2nc3cnccc3n2C)CC1 [compound 39]	396
C[C@@H]1CN(Cc2nc3cnccc3n2C)CC[C@@H]1c1ccc2c(c1)CCCC2 (relative stereo) [compound 190]	573
C[C@@H]1CN(Cc2nc3cnccc3n2C)CC[C@@H]1c1ccc(F)c(C(F)(F)F)c1 (relative stereo) [compound 198]	176
Cn1c(CN2CCC(c3cc(C(F)(F)F)ccc3F)CC2)nc2cnccc21 [compound 57]	448
C[C@@H]1CN(Cc2nc3cnccc3n2C)CC[C@@H]1c1ccc(OC(F)F)cc1Cl (relative stereo) [compound 202]	125
Cc1cc(F)ccc1[C@H]1CCN(Cc2nc3cnccc3n2C)C[C@H]1C (relative stereo) [compound 205]	243
C[C@@H]1CN(Cc2nc3cnccc3n2C)CC[C@@H]1c1ccccc1F (single isomer, unassigned) [compound 73]	242
Cn1c(CN2CCC(c3ccc(C(F)(F)F)cc3)C(O)C2)nc2ncccc21 (stereo not drawn) [compound 86]	> 2750
C[C@@H]1CN(Cc2nc3cnccc3n2C)CC[C@@H]1c1ccc(F)cc1F (relative stereo) [compound 125]	10300
COc1ccccc1C1CCN(Cc2nc3cccnc3n2C)CC1C (stereo not drawn) [compound 59]	349
COc1cc(OC(F)(F)F)ccc1[C@H]1CCN(Cc2nc3ncccc3n2C)C[C@H]1C (relative stereo) [compound 215]	59.4
C[C@@H]1CN(Cc2nc3cnccc3n2C)CC[C@@H]1c1ccc(Cl)cc1F (relative stereo) [compound 116]	49.8
C[C@@H]1CN(Cc2nc3cnccc3n2C)CC[C@@H]1c1ccc(OC(F)(F)F)cc1Cl (relative stereo) [compound 188]	194
Cn1c(CN2CCC(c3c(F)cccc3C(F)(F)F)CC2)nc2cnccc21 [compound 228]	> 458
COc1cc(C(F)(F)F)ccc1C1CCN(Cc2nc3nccc4c3n2CCC4)CC1 [Example 135, 2-({4-[2-methoxy-4-(trifluoromethyl)phenyl]-piperidin-1-yl}methyl)-5,6-dihydro-4H-imidazo[4,5,1-ij]-1,7-naphthyridine]	< 5.43
C[C@@H]1CN(Cc2nc3cnccc3n2C)CC[C@@H]1c1ccc(Cl)cc1Cl (relative stereo) [compound 156]	88.2
C[C@@H]1CN(Cc2nc3nccc4c3n2CCC4)CC[C@@H]1c1ccc(F)c(Cl)c1 (relative stereo) [Example 128, 2-{[Cis-4-(3-chloro-4-fluorophenyl)-3-methylpiperidin-1-yl]methyl}-5,6-dihydro-4H-imidazo[4,5,1-ij]-1,7-naphthyridine]	134
C[C@@H]1CN(Cc2nc3cnccc3n2C)CC[C@@H]1c1ccc(C(F)(F)F)cc1Cl (single isomer, unassigned) [compound 171]	1520
C[C@@H]1CN(Cc2nc3nccc4c3n2CCC4)CC[C@@H]1c1ccc(F)cc1F (relative stereo) [Example 127, 2-{[Cis-4-(2,4-difluorophenyl)-3-methylpiperidin-1-yl]methyl}-5,6-dihydro-4H-imidazo[4,5,1-ij]-1,7-naphthyridine]	47.1
C[C@@H]1CN(Cc2nc3cnccc3n2C)CC[C@@H]1c1ccc(OC(F)F)cc1 (relative stereo) [compound 178]	> 1350
CCCOc1ccc(Cl)cc1C1CCN(Cc2nc3cccnc3n2C)CC1 [compound 40]	410

Now from value to compound:

EC50 [nM]	Structure (SMILES)
22.9	C[C@@H]1CN(Cc2nc3ncccc3n2C)CC[C@@H]1c1ccc(Cl)cc1Cl (relative stereo) [compound 155]
745	Cn1c(CN2CCC(c3ccc(C(F)(F)F)cc3)C(C)(C)C2)nc2ncccc21 (stereo not drawn) [compound 76]
63	C[C@@H]1CN(Cc2nc3ncccc3n2C)CC[C@@H]1c1ccc(OC(F)(F)F)cc1Cl (relative stereo) [compound 187]
1050	Cn1c(CN2CCC(c3ccccc3F)CC2)nc2cnccc21 [compound 49]
> 909	CC(C)Oc1ccc([C@H]2CCN(Cc3nc4ncccc4n3C)C[C@H]2C)c(F)c1 (single isomer, unassigned) [compound 218]
392	CCCOc1ccc(Cl)cc1C1CCN(Cc2nc3ncccc3n2C)CC1 [compound 38]
82.3	CC(C)Oc1ccc([C@H]2CCN(Cc3nc4ncccc4n3C)C[C@H]2C)c(F)c1 (relative stereo) [compound 166]
27.1	Cn1c(CN2CCC(c3ccc(Cl)cc3F)CC2)nc2ncccc21 [compound 110]
372	COc1cc(F)ccc1C1CCN(Cc2nc3cnccc3n2C)CC1 [compound 88]
367	Cn1c(CN2CCC(c3ccc(F)c(Cl)c3)CC2)nc2cccnc21 [compound 103]
212	COc1cc(F)ccc1C1CCN(Cc2nc3ncccc3n2C)CC1 [compound 87]
19.5	C[C@@H]1CN(Cc2nc3ncccc3n2C)CC[C@@H]1c1ccc(Cl)cc1F (relative stereo) [compound 115]
88.6	Cc1cc(F)ccc1[C@H]1CCN(Cc2nc3ncccc3n2C)C[C@H]1C (relative stereo) [compound 206]
621	C[C@@H]1CN(Cc2nc3ncccc3n2C)CC[C@@H]1c1ccc2c(c1)CCCC2 (relative stereo) [compound 189]
993	C[C@@H]1CN(Cc2nc3ncccc3n2C)CC[C@@H]1c1ccc(C(F)(F)F)cc1F (single isomer, unassigned) [compound 139]
30	C[C@@H]1CN(Cc2nc3ncccc3n2C)CC[C@@H]1c1ccc(C(F)(F)F)cc1Cl (relative stereo) [compound 151]
199	Cn1c(CN2CCC(c3ccc(F)cc3F)CC2)nc2cccnc21 [compound 85]
203	COc1ccc(Cl)cc1C1CCN(Cc2nc3ncccc3n2C)CC1 [compound 43]
9770	COc1ccc(C2CCN(Cc3nc4ncccc4n3C)CC2)cc1 [compound 81]
< 9.25	C[C@@H]1CN(Cc2nc3ncccc3n2C)CC[C@@H]1c1ccc(C(F)(F)F)cc1F (single isomer, unassigned) [compound 138]
753	C[C@@H]1CN(Cc2nc3ncccc3n2C)CC[C@@H]1c1ccc(F)c(F)c1 (relative stereo) [compound 121]
251	Cn1c(CN2CCC(c3ccc(F)cc3F)CC2)nc2ncccc21 [compound 82]
111	CC1CN(Cc2nc3ncccc3n2C)CCC1c1ccc(C(F)(F)F)cc1 (stereo not drawn) [compound 70]
> 9110	Cn1c(CN2CCC(c3ccc(Cl)cc3)CC2)nc2ncccc21 [compound 80]
203	C[C@@H]1CN(Cc2nc3ncccc3n2C)CC[C@@H]1c1ccc(F)c(Cl)c1 (relative stereo) [compound 111]
102	Cc1cc(Cl)ccc1[C@H]1CCN(Cc2nc3ncccc3n2C)C[C@H]1C (relative stereo) [compound 160]
985	Cn1c(CN2CCC(c3cc(F)cc(F)c3)CC2)nc2ncccc21 [compound 91]
617	Cc1cccc(C2CCN(Cc3nc4ncccc4n3C)CC2)c1 [compound 62]
577	CC(C)Oc1ccc([C@H]2CCN(Cc3nc4ncccc4n3C)C[C@H]2C)cc1F (relative stereo) [compound 182]

same assay, conditions: HEK cells stably transfected with mGluR2 and Gα15; FLIPR (Fluo-4); potentiation of an EC10 to EC20 concentration of glutamate; Table 9

EC50 [nM]	Structure (SMILES)
< 5.43	COc1cc(C(F)(F)F)ccc1C1CCN(Cc2nc3nccc4c3n2CCC4)CC1 [Example 135, 2-({4-[2-methoxy-4-(trifluoromethyl)phenyl]-piperidin-1-yl}methyl)-5,6-dihydro-4H-imidazo[4,5,1-ij]-1,7-naphthyridine]
134	C[C@@H]1CN(Cc2nc3nccc4c3n2CCC4)CC[C@@H]1c1ccc(F)c(Cl)c1 (relative stereo) [Example 128, 2-{[Cis-4-(3-chloro-4-fluorophenyl)-3-methylpiperidin-1-yl]methyl}-5,6-dihydro-4H-imidazo[4,5,1-ij]-1,7-naphthyridine]
47.1	C[C@@H]1CN(Cc2nc3nccc4c3n2CCC4)CC[C@@H]1c1ccc(F)cc1F (relative stereo) [Example 127, 2-{[Cis-4-(2,4-difluorophenyl)-3-methylpiperidin-1-yl]methyl}-5,6-dihydro-4H-imidazo[4,5,1-ij]-1,7-naphthyridine]

same assay, conditions: mGluR2 potentiator screen, FLIPR, EC10-EC20 glutamate challenge

Structure (SMILES)	EC50 [nM]
C[C@@H]1CN(Cc2nc3cnccc3n2C)CC[C@@H]1c1ccc(F)c(F)c1F (relative stereo) [compound 250]	> 221
COc1ccc(C2CCN(Cc3nc4cnccc4n3C)CC2)c(C(F)(F)F)c1 [compound 270]	494
CC(C)Oc1ccc(C2CCN(Cc3nc4cnccc4n3C)CC2)c(Cl)c1 [compound 267]	85.5
COc1cc(OC(F)(F)F)ccc1C1CCN(Cc2nc3cnccc3n2C)CC1 [compound 280]	33.9
C[C@@H]1CN(Cc2nc3cnccc3n2C)CC[C@@H]1c1ccc(OC(F)F)cc1Cl (single isomer, unassigned) [compound 246]	99.9
COc1cc(F)ccc1[C@H]1CCN(Cc2nc3cnccc3n2C)C[C@H]1C (single isomer, unassigned) [compound 259]	1460

The remaining lines, values ahead:

EC50 [nM]	Structure (SMILES)
127	CC(C)Oc1ccc(C2CCN(Cc3nc4ncccc4n3C)CC2)c(F)c1 [compound 262]
99.7	COc1cc(OC(F)(F)F)ccc1C1CCN(Cc2nc3ncccc3n2C)CC1 [compound 281]
906	Cn1c(CN2CCC(c3ccc(OC(F)F)cc3)CC2)nc2cnccc21 [compound 263]
24.1	Cn1c(CN2CCC(c3ccc(C(F)(F)F)cc3Cl)CC2)nc2ncccc21 [compound 272]
60.5	Cc1cc(C2CCN(Cc3nc4ncccc4n3C)CC2)ccc1C(F)(F)F [compound 277]
54.9	Cn1c(CN2CCC(c3ccc(OC(F)F)cc3Cl)CC2)nc2ncccc21 [compound 266]
554	Cn1c(CN2CCC(c3ccc(OC(F)F)cc3)CC2)nc2ncccc21 [compound 264]
75.5	C[C@@H]1CN(Cc2nc3ncccc3n2C)CC[C@@H]1c1ccc(F)cc1OC(F)F (relative stereo) [compound 274]
262	C[C@@H]1CN(Cc2nc3ncccc3n2C)CC[C@@H]1c1ccc(OC(F)F)cc1Cl (single isomer, unassigned) [compound 245]
88	Cc1cc(C(F)(F)F)ccc1[C@H]1CCN(Cc2nc3ncccc3n2C)C[C@H]1C (relative stereo) [compound 239]
84.5	Cn1c(CN2CCC(c3ccc(OC(F)(F)F)cc3)CC2)nc2ncccc21 [compound 231]
50.8	Cn1c(CN2CCC(c3ccc(C(F)(F)F)cc3F)CC2)nc2cnccc21 [compound 236]

From US20080312271A1, “AZABENZIMIDAZOLYL COMPOUNDS” (Pfizer Inc., priority 2006, published 2008)
